Experimental data: ChEMBL document CHEMBL3351253, “Sterol fatty acid esters from the mushroom Hericium erinaceum and their PPAR transactivational effects” (J Nat Prod, 2014)
One block for each compound: values may come before it.

Tests used:
Assay type in all cases: cell-based
[1] = target: T1, Peroxisome proliferator-activated receptor alpha (Homo sapiens) (UniProt Q07869); test: Transactivation of human Gal4-PPARalpha LBD transfected in human HepG2 cells assessed as stimulation at 5 uM after 20 hrs by luciferase reporter gene assay relative to vehicle-treated control
T1 sequence (whole entry): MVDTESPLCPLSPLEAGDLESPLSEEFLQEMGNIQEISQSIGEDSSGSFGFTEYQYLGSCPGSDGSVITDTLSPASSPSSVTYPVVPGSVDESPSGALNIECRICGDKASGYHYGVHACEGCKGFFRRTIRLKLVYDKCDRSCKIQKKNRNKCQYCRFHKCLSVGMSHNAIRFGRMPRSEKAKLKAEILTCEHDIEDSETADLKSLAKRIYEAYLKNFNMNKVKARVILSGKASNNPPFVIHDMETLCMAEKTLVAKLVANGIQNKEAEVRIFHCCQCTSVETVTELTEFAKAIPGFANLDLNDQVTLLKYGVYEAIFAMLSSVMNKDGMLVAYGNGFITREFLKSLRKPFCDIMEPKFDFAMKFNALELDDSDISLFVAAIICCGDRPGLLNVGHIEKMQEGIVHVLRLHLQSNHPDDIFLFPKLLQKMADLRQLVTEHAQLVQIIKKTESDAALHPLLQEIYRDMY

[2] = target: T1, Peroxisome proliferator-activated receptor alpha (Homo sapiens); test: Transactivation of human Gal4-PPARalpha LBD transfected in human HepG2 cells assessed as stimulation at 10 uM after 20 hrs by luciferase reporter gene assay relative to vehicle-treated control
[3] = test system: HepG2; test: Cytotoxicity against human HepG2 cells assessed as CCK8 after 24 hrs; conditions: hepg2, 24 h
[4] = target: T2, Peroxisome proliferator-activated receptor delta (Homo sapiens) (UniProt Q03181); test: Transactivation of human Gal4-PPARbeta/delta LBD transfected in human HepG2 cells assessed as stimulation at 20 uM after 20 hrs by luciferase reporter gene assay relative to vehicle-treated control
T2 sequence (whole entry): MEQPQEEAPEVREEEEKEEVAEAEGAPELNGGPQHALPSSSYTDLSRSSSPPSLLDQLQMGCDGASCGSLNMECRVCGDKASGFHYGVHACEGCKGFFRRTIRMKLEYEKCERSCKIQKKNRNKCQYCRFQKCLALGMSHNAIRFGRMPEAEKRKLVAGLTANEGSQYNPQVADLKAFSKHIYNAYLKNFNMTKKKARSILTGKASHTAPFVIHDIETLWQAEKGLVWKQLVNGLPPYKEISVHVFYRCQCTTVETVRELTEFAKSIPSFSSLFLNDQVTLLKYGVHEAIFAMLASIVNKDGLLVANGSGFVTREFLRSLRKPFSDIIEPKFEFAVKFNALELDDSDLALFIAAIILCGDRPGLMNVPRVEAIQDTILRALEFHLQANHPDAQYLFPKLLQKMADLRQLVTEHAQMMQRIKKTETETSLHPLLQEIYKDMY

[5] = target: T3, Peroxisome proliferator-activated receptor gamma (Homo sapiens) (UniProt P37231); test: Transactivation of human Gal4-PPARgamma LBD transfected in human HepG2 cells assessed as stimulation at 20 uM after 20 hrs by luciferase reporter gene assay relative to vehicle-treated control
T3 sequence (whole entry): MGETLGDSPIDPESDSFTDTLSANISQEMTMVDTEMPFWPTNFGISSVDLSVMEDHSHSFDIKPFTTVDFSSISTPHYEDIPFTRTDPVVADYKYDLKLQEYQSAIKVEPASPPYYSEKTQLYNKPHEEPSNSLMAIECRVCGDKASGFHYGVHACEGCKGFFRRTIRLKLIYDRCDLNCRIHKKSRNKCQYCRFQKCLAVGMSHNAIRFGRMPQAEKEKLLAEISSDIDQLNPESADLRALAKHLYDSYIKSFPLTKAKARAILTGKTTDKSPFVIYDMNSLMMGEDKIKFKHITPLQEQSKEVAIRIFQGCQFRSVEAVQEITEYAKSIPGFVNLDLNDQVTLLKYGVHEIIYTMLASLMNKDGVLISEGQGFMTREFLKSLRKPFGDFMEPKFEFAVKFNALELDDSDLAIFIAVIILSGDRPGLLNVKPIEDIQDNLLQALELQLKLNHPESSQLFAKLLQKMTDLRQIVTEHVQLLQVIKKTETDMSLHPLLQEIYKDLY

[6] = target: T4, Peroxisome proliferator-activated receptor (Homo sapiens, UniProt P37231+Q07869+Q03181); test: (§1) Transactivation of PPAR transfected in human HepG2 cells after 20 hrs by PPAR-luciferase assay
T4 sequence (P37231 whole entry): T3 sequence (whole entry)
T4 sequence (Q07869 whole entry): T1 sequence (whole entry)
T4 sequence (Q03181 whole entry): T2 sequence (whole entry)

[7] = target: Peroxisome proliferator-activated receptor (Homo sapiens) (UniProt P37231+Q07869+Q03181); test: as §1
[8] = target: T3, Peroxisome proliferator-activated receptor gamma (Homo sapiens); test: Transactivation of human Gal4-PPARgamma LBD transfected in human HepG2 cells assessed as stimulation at 10 uM after 20 hrs by luciferase reporter gene assay relative to vehicle-treated control
[9] = target: T2, Peroxisome proliferator-activated receptor delta (Homo sapiens); test: Transactivation of human Gal4-PPARbeta/delta LBD transfected in human HepG2 cells assessed as stimulation at 10 uM after 20 hrs by luciferase reporter gene assay relative to vehicle-treated control
[10] = target: T3, Peroxisome proliferator-activated receptor gamma (Homo sapiens); test: Transactivation of human Gal4-PPARgamma LBD transfected in human HepG2 cells assessed as stimulation at 5 uM after 20 hrs by luciferase reporter gene assay relative to vehicle-treated control
[11] = target: T2, Peroxisome proliferator-activated receptor delta (Homo sapiens); test: Transactivation of human Gal4-PPARbeta/delta LBD transfected in human HepG2 cells assessed as stimulation at 5 uM after 20 hrs by luciferase reporter gene assay relative to vehicle-treated control
[12] = target: T1, Peroxisome proliferator-activated receptor alpha (Homo sapiens); test: Transactivation of human Gal4-PPARalpha LBD transfected in human HepG2 cells assessed as stimulation at 20 uM after 20 hrs by luciferase reporter gene assay relative to vehicle-treated control
[13] = target: T1, Peroxisome proliferator-activated receptor alpha (Homo sapiens); test: Transactivation of human Gal4-PPARalpha LBD transfected in human HepG2 cells assessed as stimulation at 1 uM after 20 hrs by luciferase reporter gene assay relative to vehicle-treated control
[14] = target: T2, Peroxisome proliferator-activated receptor delta (Homo sapiens); test: Transactivation of human Gal4-PPARbeta/delta LBD transfected in human HepG2 cells assessed as stimulation at 1 uM after 20 hrs by luciferase reporter gene assay relative to vehicle-treated control

Structure (SMILES): CCCCCCCC/C=C\CCCCCCCC(=O)O[C@H]1C2=C3CC[C@H]([C@H](C)/C=C/[C@H](C)C(C)C)[C@@]3(C)CC[C@@H]2[C@@]2(C)CC[C@H](O)C[C@@]23O[C@@H]13
Activity [1]: 289%
Activity [2]: 297%
Activity [3]: Non-toxic
Activity [4]: 112%
Activity [5]: 133%
EC50 [6]: 8.2 µM
Activity [7]: Dose-dependent effect
Activity [8]: 125%
Activity [9]: 102%
Activity [10]: 114%
Activity [11]: 100%
Activity [12]: 314%

Structure (SMILES): CC(C)(Oc1ccc(C2CC2(Cl)Cl)cc1)C(=O)O (centres undefined)
Activity [13]: 311%

Structure (SMILES): CCCc1c(OCCCOc2ccc(OCC(=O)O)cc2)ccc(C(C)=O)c1O
Activity [14]: 288%

Structure (SMILES): CCCCC/C=C\C/C=C\CCCCCCCC(=O)O[C@H]1C2=C3CC[C@H]([C@H](C)/C=C/[C@H](C)C(C)C)[C@@]3(C)CC[C@@H]2[C@@]2(C)CC[C@H](O)C[C@@]23O[C@@H]13
Activity [1]: 309%
Activity [2]: 346%
Activity [3]: Non-toxic
Activity [4]: 121%
Activity [5]: 162%
EC50 [6]: 6.4 µM
Activity [7]: Dose-dependent effect
Activity [8]: 156%
Activity [9]: 111%
Activity [10]: 129%
Activity [11]: 99.6%
Activity [12]: 386%

Structure (SMILES): CC/C=C\C/C=C\C/C=C\CCCCCCCC(=O)O[C@@H]1C=C2[C@@H]3CC[C@H]([C@H](C)/C=C/[C@H](C)C(C)C)[C@@]3(C)CC[C@@H]2[C@@]2(C)CC[C@H](O)C[C@]12O
Activity [3]: Non-toxic
EC50 [6]: > 50 µM

Structure (SMILES): CCCCC/C=C\C/C=C\CCCCCCCC(=O)O[C@H]1CC[C@]2(C)[C@@]3(O)CC[C@]4(C)[C@@H]([C@H](C)/C=C/[C@H](C)C(C)C)CC[C@H]4C3=C[C@H](O)[C@@]2(O)C1
Activity [3]: Non-toxic
EC50 [6]: 22.3 µM

Structure (SMILES): CCCCC/C=C\C/C=C\CCCCCCCC(=O)O[C@H]1C=C2[C@@H]3CC[C@H]([C@H](C)/C=C/[C@H](C)C(C)C)[C@@]3(C)CC[C@@H]2[C@@]2(C)CC[C@H](O)C[C@]12O
Activity [3]: Non-toxic
EC50 [6]: > 50 µM

More lines, main results first:

EC50 [6]: > 50 µM
Structure (SMILES): CCCCCCCCCCCCCCCC(=O)O[C@H]1C=C2[C@@H]3CC[C@H]([C@H](C)/C=C/[C@H](C)C(C)C)[C@@]3(C)CC[C@@H]2[C@@]2(C)CC[C@H](O)C[C@]12O
Activity [3]: Non-toxic

EC50 [6]: > 50 µM
Structure (SMILES): CCCCCCCCCCCCCCCCCC(=O)O[C@H]1CC[C@@]2(C)C(=CC=C3[C@@H]4CC[C@H]([C@H](C)/C=C/[C@H](C)C(C)C)[C@@]4(C)CC[C@@H]32)C1
Activity [3]: Non-toxic

EC50 [6]: 18.7 µM
Structure (SMILES): CCCCC/C=C\C/C=C\CCCCCCCC(=O)O[C@H]1CC[C@]2(C)[C@H]3CC[C@]4(C)[C@@H]([C@H](C)/C=C/[C@H](C)C(C)C)CC[C@H]4C3=C[C@H](O)[C@@]2(O)C1
Activity [3]: Non-toxic

EC50 [6]: > 50 µM
Structure (SMILES): CCCCCCCCCCCCCCCC(=O)O[C@H]1CC[C@@]2(C)C(=CC=C3[C@@H]4CC[C@H]([C@H](C)/C=C/[C@H](C)C(C)C)[C@@]4(C)CC[C@@H]32)C1
Activity [3]: Non-toxic

EC50 [6]: > 50 µM
Structure (SMILES): CCCCCCCC/C=C\CCCCCCCC(=O)O[C@H]1C=C2[C@@H]3CC[C@H]([C@H](C)/C=C/[C@H](C)C(C)C)[C@@]3(C)CC[C@@H]2[C@@]2(C)CC[C@H](O)C[C@]12O
Activity [3]: Non-toxic

EC50 [6]: 20.6 µM
Structure (SMILES): CCCCCCCCCCCCCCCCCC(=O)O[C@H]1CC[C@]2(C)[C@H]3CC[C@]4(C)[C@@H]([C@H](C)/C=C/[C@H](C)C(C)C)CC[C@H]4C3=C[C@H](O)[C@@]2(O)C1
Activity [3]: Non-toxic
